Source: ChEMBL document CHEMBL4483862, “Open-source discovery of chemical leads for next-generation chemoprotective antimalarials” (2018)

Tested on: Plasmodium berghei
Assay: Luciferase/luciferin-expressing antifolate-resistant parasites were used to infect a culture of HepG2 cells that were pre-incubated with compounds. Infected hepatocytes emit light due to the luciferase reaction. Assay results are presented as the percent inhibition of light emission compared to control. […]
Type: functional
Settings: sporozoite; for IC90: read-out: LUCIFERASE INFECTION ASSAY - IC90
[1] = read-out: LUCIFERASE INFECTION ASSAY - IC50

SMILES	IC90	also measured
CCOc1ncccc1C(=O)Nc1ccc(NC(=O)C2CC2)cc1C(F)(F)F	> 10 µM	IC50 [1]: > 10 µM
CN(C)CCCCCCOc1ccc2c(c1)CCC1C2CCC2(C)C(=O)CCC12 (configuration not stated)	> 8.3 µM	IC50 (PBLUC_HILL_SLOPE 2.65, PBLUC_R_SQUARED 0.355, read-out: LUCIFERASE INFECTION ASSAY - IC50): 3.69 µM
COc1ccc(CCNC2CCc3c(c(C(=O)N(C)C)nn3CC3CCCCC3)C2)cc1 (configuration not stated)	> 7.52 µM	IC50 (PBLUC_HILL_SLOPE 15.6, PBLUC_R_SQUARED 0.553, read-out: LUCIFERASE INFECTION ASSAY - IC50): 7.33 µM
Cn1cc(/C=C/C(=O)Nc2nc(-c3ccc4c(c3)OCCO4)cs2)cn1	> 10 µM	IC50 [1]: 9.99 µM
Cc1ccc(CSCCNC(=O)c2ccc3c[nH]nc3c2)cc1	> 10 µM	IC50 (PBLUC_HILL_SLOPE 1.22, PBLUC_R_SQUARED 0.508, read-out: LUCIFERASE INFECTION ASSAY - IC50): 4.61 µM
COc1ccc(C(=O)N2CCC(Cc3ccccc3)CC2)c(O)c1	> 10 µM	IC50 (HEPG2TOX_HILL_SLOPE 0.725, HEPG2TOX_R_SQUARED 0.627, PBLUC_HILL_SLOPE 3.95, PBLUC_R_SQUARED 0.49, read-out: LUCIFERASE INFECTION ASSAY - IC50): 7.88 µM
O=C(CSc1ncc(C(F)(F)F)cc1C(F)(F)F)Nc1cc(Cl)cc(Cl)c1	> 7.35 µM	IC50 (HEPG2TOX_HILL_SLOPE 12.1, HEPG2TOX_R_SQUARED 0.84, PBLUC_HILL_SLOPE 0.731, PBLUC_R_SQUARED 0.558, read-out: LUCIFERASE INFECTION ASSAY - IC50): 1.53 µM
Oc1cccc(Nc2nc(N3CCCCC3)c3ccccc3n2)c1	> 10 µM	IC50 [1]: > 10 µM
C=CCOC(=O)C1=C(C)N(c2ccc3c(c2)OCCO3)C(=S)NC1c1ccc(F)cc1F (configuration not stated)	> 10 µM	IC50 (PBLUC_HILL_SLOPE 2.28, PBLUC_R_SQUARED 0.442, read-out: LUCIFERASE INFECTION ASSAY - IC50): 5.73 µM
CC(C)c1cc(NCCCN2CCOCC2)n2ncc(-c3ccccc3)c2n1	> 8.7 µM	IC50 (PBLUC_HILL_SLOPE 2.21, PBLUC_R_SQUARED 0.515, read-out: LUCIFERASE INFECTION ASSAY - IC50): 4.34 µM
COc1cc(-c2cnc3cnc(-c4ccsc4)cn23)cc(OC)c1OC	1.45 µM	IC50 (FFLUC_HILL_SLOPE 0.573, FFLUC_R_SQUARED 0.0155, HEPG2TOX_HILL_SLOPE 1.65, HEPG2TOX_R_SQUARED 0.878, PBLUC_HILL_SLOPE 3.42, PBLUC_R_SQUARED 0.766, read-out: LUCIFERASE INFECTION ASSAY - IC50): 0.761 µM
O=[N+]([O-])c1c(N2CCOCC2)ccc2nsnc12	> 12.4 µM	IC50 (HEPG2TOX_HILL_SLOPE 10.9, HEPG2TOX_R_SQUARED 0.296, read-out: LUCIFERASE INFECTION ASSAY - IC50): > 12.4 µM
CC(C)(C)c1nc(-c2ccc(N)cc2)no1	9.21 µM	IC50 (HEPG2TOX_HILL_SLOPE 0.127, HEPG2TOX_R_SQUARED 0.315, PBLUC_HILL_SLOPE 1.58, PBLUC_R_SQUARED 0.494, read-out: LUCIFERASE INFECTION ASSAY - IC50): 2.28 µM
NC(=O)c1ccc(-c2cc(-c3ccc(F)c(Cl)c3)cnc2N)cc1	4.41 µM	IC50 (PBLUC_HILL_SLOPE 12.5, PBLUC_R_SQUARED 0.242, read-out: LUCIFERASE INFECTION ASSAY - IC50): 3.7 µM
O=S(=O)(NCc1cc(C(F)(F)F)cc(C(F)(F)F)c1)c1cc(C(F)(F)F)cc(C(F)(F)F)c1	> 6.35 µM	IC50 [1]: > 6.35 µM
CC(C)(C)c1ccc(C2=NNC(=NCCCN3CCOCC3)SC2)cc1	9.2 µM	IC50 (PBLUC_HILL_SLOPE 3.6, PBLUC_R_SQUARED 0.412, read-out: LUCIFERASE INFECTION ASSAY - IC50): 5 µM
O=C(Nc1nc(-c2ccccn2)cs1)C1CC1c1ccccc1F (configuration not stated)	3.57 µM	IC50 (HEPG2TOX_HILL_SLOPE 7.24, HEPG2TOX_R_SQUARED 0.0806, PBLUC_HILL_SLOPE 12.4, PBLUC_R_SQUARED 0.768, read-out: LUCIFERASE INFECTION ASSAY - IC50): 2.99 µM
O=C(OC1(C(F)(F)F)C(=O)Nc2c1ccc1ccccc21)c1cccs1 (configuration not stated)	> 10 µM	IC50 (FFLUC_HILL_SLOPE 2.8, FFLUC_R_SQUARED 0.511, PBLUC_HILL_SLOPE 11.1, PBLUC_R_SQUARED 0.378, read-out: LUCIFERASE INFECTION ASSAY - IC50): 9.81 µM
CCN(CC(=O)Nc1ccccc1C(F)(F)F)CC(=O)N1CCc2ccccc21	7.42 µM	IC50 (HEPG2TOX_HILL_SLOPE 12.9, HEPG2TOX_R_SQUARED 0.752, PBLUC_HILL_SLOPE 284, PBLUC_R_SQUARED 0.135, read-out: LUCIFERASE INFECTION ASSAY - IC50): 7.36 µM
CC(=O)Nc1cccc(-c2cc(NC=O)c3ncc(-c4ccc(C(C)=O)cc4)n3c2)c1	> 8 µM	IC50 (HEPG2TOX_HILL_SLOPE 0.38, HEPG2TOX_R_SQUARED 0.804, PBLUC_HILL_SLOPE 0.536, PBLUC_R_SQUARED 0.0495, read-out: LUCIFERASE INFECTION ASSAY - IC50): > 8 µM
CCCN(Cc1nc(-c2ccccc2)c2ccccc2n1)Cc1nc2ccsc2c(=O)[nH]1	> 10 µM	IC50 [1]: > 10 µM

SMILES	IC90	also measured
COc1ccc(-c2cnc(N)c(-c3ccc(O)c(OC)c3)c2)cn1	3.7 µM	IC50 (FFLUC_HILL_SLOPE 1.75, FFLUC_R_SQUARED 0.121, PBLUC_HILL_SLOPE 11, PBLUC_R_SQUARED 0.572, read-out: LUCIFERASE INFECTION ASSAY - IC50): 3.03 µM
COc1ccc(-c2cnc3cnc(-c4ccc(C(=O)NCCO)cc4)cn23)cc1	4.08 µM	IC50 (PBLUC_HILL_SLOPE 8.42, PBLUC_R_SQUARED 0.632, read-out: LUCIFERASE INFECTION ASSAY - IC50): 3.15 µM
CC1=C(C(=O)OC2CCC(C)CC2)C(c2ccc(C)cc2)NC(=O)N1 (configuration not stated)	> 9.64 µM	IC50 (FFLUC_HILL_SLOPE 14.5, FFLUC_R_SQUARED 0.355, read-out: LUCIFERASE INFECTION ASSAY - IC50): > 9.64 µM
FC(F)(F)c1nc2ccccc2nc1N/N=C/C=C/c1ccccc1	> 9.64 µM	IC50 [1]: > 9.64 µM
N#CCCn1cc(/C=N/Nc2nc3ccccc3s2)c(-c2ccc(F)cc2)n1	> 10 µM	IC50 [1]: > 10 µM
c1cc2c(cc1-c1cn3c(-c4ccc5c(c4)OCO5)cnc3cn1)OCO2	8.22 µM	IC50 (HEPG2TOX_HILL_SLOPE 1.25, HEPG2TOX_R_SQUARED 0.883, PBLUC_HILL_SLOPE 2.72, PBLUC_R_SQUARED 0.694, read-out: LUCIFERASE INFECTION ASSAY - IC50): 3.66 µM
Cc1nc(C2CC2)nc(SC(C)C)c1C#N	> 10 µM	IC50 (HEPG2TOX_HILL_SLOPE 17, HEPG2TOX_R_SQUARED 0.522, PBLUC_HILL_SLOPE 1.64, PBLUC_R_SQUARED 0.538, read-out: LUCIFERASE INFECTION ASSAY - IC50): 5.26 µM
Cc1cc(=O)nc(N/N=C/c2cc(C)n(-c3ccc(C)c(C)c3)c2C)[nH]1	> 10 µM	IC50 (PBLUC_HILL_SLOPE 2.67, PBLUC_R_SQUARED 0.2, read-out: LUCIFERASE INFECTION ASSAY - IC50): 9.4 µM
Cc1ccc(Br)cc1NC(=O)C(C)NC(=O)OC(C)(C)C (configuration not stated)	> 10 µM	IC50 [1]: > 10 µM
CCCNC(=O)c1c(NC(=O)c2cccc(OC)c2)nc2ccc(C)cn12	8.77 µM	IC50 (HEPG2TOX_HILL_SLOPE 7.34, HEPG2TOX_R_SQUARED 0.277, PBLUC_HILL_SLOPE 3.84, PBLUC_R_SQUARED 0.328, read-out: LUCIFERASE INFECTION ASSAY - IC50): 4.95 µM
Cc1cc2ccccn2c1C(=O)c1nc(S(C)(=O)=O)ncc1Cl	> 10 µM	IC50 (HEPG2TOX_HILL_SLOPE 4.52, HEPG2TOX_R_SQUARED 0.995, PBLUC_HILL_SLOPE 10.9, PBLUC_R_SQUARED 0.162, read-out: LUCIFERASE INFECTION ASSAY - IC50): 8.19 µM
COc1cc(NC(=O)C(C)(C)n2cc(-c3ccc(OCCN4CCCC4)cc3)cn2)cc(OC)c1	> 10 µM	IC50 [1]: > 10 µM
O=C1C=CC(=O)N1Cc1ccccc1	> 17.6 µM	IC50 (HEPG2TOX_HILL_SLOPE 16.7, HEPG2TOX_R_SQUARED 0.468, read-out: LUCIFERASE INFECTION ASSAY - IC50): > 17.6 µM
Oc1cccc(-c2cnc3cnc(-c4cc5ccccc5s4)cn23)c1	8.34 µM	IC50 (HEPG2TOX_HILL_SLOPE 18.8, HEPG2TOX_R_SQUARED 0.771, PBLUC_HILL_SLOPE 3.35, PBLUC_R_SQUARED 0.418, read-out: LUCIFERASE INFECTION ASSAY - IC50): 4.33 µM
COc1ccc2ccccc2c1/C=N/n1c(-c2ccc(Br)s2)cs/c1=N\c1ccc(Cl)cc1	> 10 µM	IC50 (PBLUC_HILL_SLOPE 0.354, PBLUC_R_SQUARED 0.256, read-out: LUCIFERASE INFECTION ASSAY - IC50): > 10 µM
COCCn1c(C(=O)OC)c(NC(=O)c2ccco2)c2cc(NCC(C)c3ccccc3)cnc21 (configuration not stated)	> 6.93 µM	IC50 (PBLUC_HILL_SLOPE 27.9, PBLUC_R_SQUARED 0.298, read-out: LUCIFERASE INFECTION ASSAY - IC50): 6.65 µM
NC(=O)Cc1ccc(C(=O)CSc2ncnc3sc(-c4ccccc4)cc23)s1	> 10 µM	IC50 (PBLUC_HILL_SLOPE 2.63, PBLUC_R_SQUARED 0.33, read-out: LUCIFERASE INFECTION ASSAY - IC50): 7.38 µM
Cc1cccc(C2NC(=O)NC3=C2C(=O)N(Cc2ccc(F)cc2)C3)c1 (configuration not stated)	> 10 µM	IC50 [1]: > 10 µM
CCOC(=O)c1sc2ncn(-n3c(C)ccc3C)c(=O)c2c1C	7.62 µM	IC50 (PBLUC_HILL_SLOPE 2.28, PBLUC_R_SQUARED 0.71, read-out: LUCIFERASE INFECTION ASSAY - IC50): 2.9 µM
Cc1nc2ccccc2c(=O)n1-c1ccc(C(=O)NCCc2ccc3c(c2)OCCO3)cc1	> 10 µM	IC50 [1]: > 10 µM
